The values that follow come from patent publication US20060063792A1, “Substituted morphinans and methods of their use” (Adolor Corporation, priority 2004, published 2006).

In test [1] the target is T1, μ opioid receptor (Homo sapiens, UniProt P35372).
T1 construct: expressed in transfected cells
The experiment in a line: [3H]diprenorphine receptor binding, cloned human μ opioid receptor. The method, then: The potencies of the compounds were determined by testing the ability of a range of concentrations of each compound to inhibit the binding of the non-selective opioid antagonist, [^3H]diprenorphine, to the cloned human μ, κ, and δ opioid receptors, expressed in separate cell lines. IC50 values were obtained by nonlinear analysis of the data using GraphPad Prism version 3.00 for Windows (GraphPad Software, San Diego). Ki values were obtained by Cheng-Prusoff corrections of IC50 values.
The receptor binding method (DeHaven and DeHaven-Hudkins, “Characterization of Opioid Receptors”, Current Protocols in Pharmacology (Eds. Enna S J and Williams M) 1.4.1-1.4.12, John Wiley & Sons, Inc., New York (1998)) was a modification of the method of Raynor, et al., Mol. Pharmacol. 45:330-334 (1994). After dilution in buffer A and homogenization as before, membrane proteins (10-80 μg) in 250 μL were added to mixtures containing test compound and [^3H]diprenorphine (0.5 to 1.0 nM, 40,000 to 50,000 dpm) in 250 μL of buffer A in 96-well deep-well polystyrene titer plates (Beckman). […] The filters were rinsed 4 times with 1 mL of cold 50 mM Tris HCl, pH 7.8 and radioactivity remaining on the filters determined by scintillation spectroscopy. Nonspecific binding was determined by the minimum values of the titration curves and was confirmed by separate assay wells containing 10 μM naloxone. Ki values were determined by Cheng-Prusoff corrections of IC50 values derived from nonlinear regression fits of 12 point titration curves using GraphPad Prism® version 3.00 for Windows (GraphPad Software, San Diego, Calif.).
To determine the equilibrium dissociation constant for the inhibitors (Ki), radioligand bound (cpm) in the presence of various concentrations of test compounds was measured. […] The Ki values were then determined from the […] values by the following equation, [formula] where [ligand] is the concentration of radioligand and Kd is the equilibrium dissociation constant for the radioligand.

Test [2] has as its target T1, μ opioid receptor. The test is described as follows: Inhibition of agonist (loperamide)-stimulated [35S]GTPγS binding to membranes with cloned human μ opioid receptor. The class given is biochemical. The method, then:
The potencies of the antagonists were assessed by their abilities to inhibit agonist-stimulated [^35S]GTPγS binding to membranes containing the cloned human μ, κ, or δ opioid receptors. The agonists used were loperamide for the μ opioid receptor, U50488H for the κ opioid receptor, and BW373U86 for the δ opioid receptor.
To determine the IC50 value, which was the concentration to give half-maximal inhibition of agonist-stimulated [^35S]GTPγS binding, the amount of [^35S]GTPγS bound in the presence of a fixed concentration of agonist and various concentrations of antagonist was measured. The fixed concentration of agonist was the EC80 for the agonist, which was the concentration to give 80% of the relative maximum stimulation of […] binding. The IC50 value was determined from a best nonlinear regression fit of the data to the following equation, [formula] where Y is the amount of [^35S]GTPγS bound at each concentration of antagonist, Bottom is the calculated amount of [^35S]GTPγS bound in the presence of an infinite concentration of antagonist, Top is the calculated amount of [^35S]GTPγS bound in the absence of added antagonist, X is the logarithm of the concentration of antagonist, and LogIC50 is the logarithm of the concentration of antagonist where the amount of [^35S]GTPγS bound is halfway between Bottom and Top. The nonlinear regression fit was performed using GraphPad Prism® version 3.00 for Windows (GraphPad Software, San Diego, Calif.). Mouse Gastrointestinal Transit (GIT) Assay (in vivo Assay)
Background: GTPγS resists hydrolysis and so accumulates on activated G proteins.

T1 sequence (P35372 whole entry): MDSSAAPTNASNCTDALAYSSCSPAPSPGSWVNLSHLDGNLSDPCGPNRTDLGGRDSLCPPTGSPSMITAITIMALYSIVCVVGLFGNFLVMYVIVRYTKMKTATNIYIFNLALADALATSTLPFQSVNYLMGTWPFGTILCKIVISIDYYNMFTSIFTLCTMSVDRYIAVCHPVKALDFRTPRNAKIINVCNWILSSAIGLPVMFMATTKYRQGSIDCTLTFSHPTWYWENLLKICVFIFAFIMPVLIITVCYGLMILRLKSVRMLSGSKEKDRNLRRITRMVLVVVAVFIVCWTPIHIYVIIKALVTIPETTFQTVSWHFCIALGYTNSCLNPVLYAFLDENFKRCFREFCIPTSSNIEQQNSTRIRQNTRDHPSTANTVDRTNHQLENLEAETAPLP

One may read the Ki as the equilibrium dissociation constant of an inhibitor or competing ligand from its target. Usually IC50 stands for the midpoint of a concentration-inhibition curve. `O=C(O)CNC(=O)/C=C1/CC[C@@]2(O)[C@H]3Cc4ccc(O)c5c4[C@@]2(CCN3CC2CC2)[C@H]1O5` [Example 33, 4,5α-Epoxy-3,14β-dihydroxy-6,6Z(N-acryloylamino-acetic acid)-17-(cyclopropylmethyl)morphinan] came in with a Ki in test [1] of 3 nM. The IC50 in test [2] was determined as 21.3 nM.
In test [1], `CC(=O)N[C@@]12CC[C@H](NCc3ccccc3)[C@@H]3Oc4c(O)ccc5c4[C@@]31CCN(CC1CC1)[C@@H]2C5` [Example 73, 4,5α-Epoxy-3-hydroxy-14β-acetylamino-6-α-benzylamino-17-(cyclopropylmethyl)morphinan] showed a Ki of 2.8 nM. Moreover, the IC50 in test [2] was found to be 4.2 nM.
`O=C(O)CCCC(=O)N[C@@]12CCC(=O)[C@@H]3Oc4c(O)ccc5c4[C@@]31CCN(CC1CC1)[C@@H]2C5` [Example 85] returned a Ki in test [1] of 4.1 nM. In test [2], the IC50 is 1.1 nM.
